In patent US20230210851A1, “SPIRO-LACTAM COMPOUNDS AND METHODS OF TREATING VIRAL INFECTIONS USING THE SAME” (Aptinyx Inc., priority 2020, published 2023):
Like-named read-outs stand apart in the source and are kept apart here.

Molecular target: T1, 3CL Protease, MBP-tagged (SARS-CoV-2) (Severe acute respiratory syndrome coronavirus 2, UniProt P0DTD1)
T1 construct: The assay was performed using 3CL Protease, MBP-tagged (SARS-CoV-2) Assay kit; MBP; purchased BPS Biosciences 79955-2
Assay: biochemical
Conditions: for activity at tested concentrations: tested concentrations 0.002-30 µM; for IC50: compound study, 10 point dose response curve

[1] = COVID-19 3CL Protease inhibitory activity at 30 µM compound, 30 µM
[2] = read-out: % Inhibition at 30 µM, COVID-19 3CL Protease inhibitory activity at 30 µM compound
[3] = 30 µM concentration, approximate values, read-out: inhibition at 30 µM concentration
[4] = COVID-19 3CL Protease inhibitory activity at 30 µM compound, read-out: % Inhibition at 30 µM
[5] = COVID-19 3CL Protease inhibitory activity at 30 µM compound

With `CCC(CC)OC(=O)C(C)NP(=O)(OCC(=O)N1CCN(Cc2ccccc2)C2(CCNC2=O)C1)Oc1ccccc1` (stereo not shown) [ET-117, Pentan-3-yl ((2-(6-benzyl-1-oxo-2,6,9-triazaspiro[4.5]decan-9-yl)-2-oxoethoxy)(phenoxy)phosphoryl)alaninate] the “% Inhibition at 30 µM” value [1] was 15%.
For `CCC(CC)OC(=O)C(C)NP(=O)(OCC(=O)N1CCN(Cc2ccccc2)C2(CCNC2=O)C1)Oc1ccccc1` (stereo not shown) [ET-118, Pentan-3-yl ((2-(6-benzyl-1-oxo-2,6,9-triazaspiro[4.5]decan-9-yl)-2-oxoethoxy)(phenoxy)phosphoryl)alaninate], the “% Inhibition at 30 µM” value [1] was 34%.
`O=C(CI)N1CCN(Cc2ccccc2)C2(CCNC2=O)C1` (stereo not shown) [ET-109, 6-benzyl-9-(2-iodoacetyl)-2,6,9-triazaspiro[4.5]decan-1-one] was tested, and the inhibition at 30 µM [2] was 36%.
For `CC(=O)N1CCN(Cc2ccccc2)[C@]2(CCNC2=O)C1` [ES-319], the inhibition at 30 µM [2] was 0% and the “activity at tested concentrations” value was “inactive”.
In the case of `CCC(CC)OC(=O)C(C)NP(=O)(OCC(=O)N1CCN(Cc2ccccc2)C2(CCNC2=O)C1)Oc1ccccc1` (stereo not shown) [ET-116, Pentan-3-yl ((2-(6-benzyl-1-oxo-2,6,9-triazaspiro[4.5]decan-9-yl)-2-oxoethoxy)(phenoxy)phosphoryl)alaninate], the “% Inhibition at 30 µM” value [1] is reported as 28%.
`CCC(CC)OC(=O)[C@H](C)NP(=O)(OCC(=O)N1CCN(Cc2ccccc2)C2(CCNC2=O)C1)Oc1ccccc1` (stereo partly shown) [ET-119, Pentan-3-yl ((2-(6-benzyl-1-oxo-2,6,9-triazaspiro[4.5]decan-9-yl)-2-oxoethoxy)(phenoxy)phosphoryl)alaninate] gave an inhibition at 30 µM [2] of 34%.
`O=C(CCl)N1CCN(Cc2ccc(F)cc2)C2(CCNC2=O)C1` (single isomer, unassigned) [ET-108, 9-(2-chloroacetyl)-6-(4-fluorobenzyl)-2,6,9-triazaspiro[4.5]decan-1-one] gave an inhibition at 30 µM [3] of roughly 84%, an inhibition at 30 µM [4] of 84% and an IC50 of 6 µM.
`CC(Cl)C(=O)N1CCN(Cc2ccccc2)C2(CCNC2=O)C1` (stereo not shown) [ET-112, 6-benzyl-9-(2-chloropropanoyl)-2,6,9-triazaspiro[4.5]decan-1-one] was tested, and the “% Inhibition at 30 µM” value [5] was 0%.
In the case of `O=C(CCl)N1CCN(Cc2ccccc2)[C@@]2(CCNC2=O)C1` [ET-103, 6-benzyl-9-(2-chloroacetyl)-2,6,9-triazaspiro[4.5]decan-1-one], the inhibition at 30 µM [3] is reported as roughly 44% and the inhibition at 30 µM [4] is reported as 44%.
`CC(Cl)C(=O)N1CCN(Cc2ccccc2)C2(CCNC2=O)C1` (stereo not shown) [ET-114, 6-benzyl-9-(2-chloropropanoyl)-2,6,9-triazaspiro[4.5]decan-1-one] was tested, and the “% Inhibition at 30 µM” value [5] was 0%.
With `CC(Cl)C(=O)N1CCN(Cc2ccccc2)C2(CCNC2=O)C1` (stereo not shown) [ET-113, 6-benzyl-9-(2-chloropropanoyl)-2,6,9-triazaspiro[4.5]decan-1-one] the “% Inhibition at 30 µM” value [5] was 0%.
With `CCC(CC)OC(=O)C(C)NP(=O)(OCC(=O)N1CCN(Cc2ccccc2)C2(CCNC2=O)C1)Oc1ccccc1` (stereo not shown) [ET-115, Pentan-3-yl ((2-(6-benzyl-1-oxo-2,6,9-triazaspiro[4.5]decan-9-yl)-2-oxoethoxy)(phenoxy)phosphoryl)alaninate] the “% Inhibition at 30 µM” value [1] was 31%.
Work on `CC(Cl)C(=O)N1CCN(Cc2ccccc2)C2(CCNC2=O)C1` (stereo not shown) [ET-111, 6-benzyl-9-(2-chloropropanoyl)-2,6,9-triazaspiro[4.5]decan-1-one] yielded an inhibition at 30 µM [2] of 0%.
In the case of `CC(=O)N1CCN(Cc2ccccc2)[C@@]2(CCNC2=O)C1` [ES-320], the inhibition at 30 µM [2] is reported as 0% and the “activity at tested concentrations” value is reported as “inactive”.
With `O=C(CCl)N1CCN(Cc2ccccc2)[C@]2(CCNC2=O)C1` [ET-104, 6-benzyl-9-(2-chloroacetyl)-2,6,9-triazaspiro[4.5]decan-1-one] the inhibition at 30 µM [3] was roughly 92%, the inhibition at 30 µM [4] was 92% and the IC50 was 11.5 µM.
`O=C(CCl)N1CCN(Cc2ccc(F)cc2)C2(CCNC2=O)C1` (stereo not shown) [ET-107, 9-(2-chloroacetyl)-6-(4-fluorobenzyl)-2,6,9-triazaspiro[4.5]decan-1-one] gave an inhibition at 30 µM [4] of 38%.
`O=C(CI)N1CCN(Cc2ccccc2)C2(CCNC2=O)C1` (stereo not shown) [ET-110, 6-benzyl-9-(2-iodoacetyl)-2,6,9-triazaspiro[4.5]decan-1-one] was tested, and the inhibition at 30 µM (read-out: inhibition at 30 µM concentration, 30 µM concentration, approximate values) was roughly 47%.
In the case of `CCC(CC)OC(=O)[C@H](C)NP(=O)(OCC(=O)N1CCN(Cc2ccccc2)C2(CCNC2=O)C1)Oc1ccccc1` (stereo partly shown) [ET-120, Pentan-3-yl ((2-(6-benzyl-1-oxo-2,6,9-triazaspiro[4.5]decan-9-yl)-2-oxoethoxy)(phenoxy)phosphoryl)alaninate], the “% Inhibition at 30 µM” value [1] is reported as 30%.
